In general, IC50 refers to the concentration that gives 50% inhibition. What is called AC50 is the concentration at which the activity in the assay is half-maximal.

Where a name gives a salt, the structure may show the parent alone. Read-outs that look alike come from different tables or passages of the source.

Our source for the IC50 and AC50 values is patent publication US20250326748A1, “COMPOUNDS AND METHODS FOR MODULATING SPLICING” (REMIX THERAPEUTICS INC., priority 2022, published 2025).

One assay deals with HTT mRNA. As to the kind of experiment: Splicing RT-qPCR assay, HTT canonical (CJ) and alternative (AJ) junction mRNA. The format is cell-based, human. Conditions: Homo sapiens; for IC50: canonical junction mRNA; for AC50: alternative junction mRNA, read-out: HTT AJ (AC50, increase in AJ mRNA). Summed up:
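A673 or K562 cells were treated for 24 h at 37 °C with an 11-point 3-fold compound dilution series (top final 10 uM, DMSO ≤0.25%). Lysates then went to one-step TaqMan RT-qPCR quantifying canonical (CJ) and alternative-exon (AJ) junction transcripts, normalized to a housekeeping gene.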
Background: In qPCR the cycle at which signal appears reflects the starting amount.

Another assay deals with SMN2 mRNA. As to the kind of experiment: Splicing RT-qPCR panel, SMN2 canonical junction (CJ) mRNA. Type of assay: cell-based, human. The following applies: Homo sapiens, read-out: SMN2 CJ (decrease in CJ mRNA levels, IC50). In a few lines: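 A673 cells (DMEM, 10% FBS) or K562 cells (IMDM, 10% FBS) treated 24 h at 37 °C with an 11-point 3-fold dilution, top 10 uM, DMSO ≤0.25%. Canonical-junction mRNA quantified in lysates by RT-qPCR, normalised to GAPDH, GUSB or PPIA and to DMSO (2^−ΔΔCt), then converted to % response.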

Setting [1] is: 24 h, RT-qPCR, A673 or K562 cells, 24 hours treatment, read-out: HTT CJ (IC50, decrease in CJ mRNA).
Where [2] appears, read: qPCR panel, read-out: HTT CJ (decrease in CJ mRNA levels, IC50).
Setting [3] is: RT-qPCR, A673 or K562 cells, 24 hours treatment.

As for `CN[C@@H]1CN(c2cnc3nc(-c4cc5cn(C)nc5c(C)c4O)ccc3c2)C[C@H]1F` (single isomer, unassigned) [Compound 130], the IC50 in the assay on HTT mRNA (setting [1]) was 100 to 1000 nM; in the assay on HTT mRNA (setting [2]) it was 100 to 1000 nM; in the assay with SMN2 mRNA, below 100 nM. Also, the AC50 in the assay with HTT mRNA (setting [3]) lay in the range of 100 to 1000 nM.
In the case of `CN[C@H]1CN(c2cnc3nc(-c4cc5cn(C)nc5c(C)c4O)ccc3c2)C[C@@H]1F` (single isomer, unassigned) [Compound 131], the IC50 in the assay with HTT mRNA (setting [1]) was 1000 to 10000 nM; with HTT mRNA (setting [2]) it was 1000 to 10000 nM; with SMN2 mRNA, below 100 nM. The AC50 with HTT mRNA (setting [3]) is 1000 to 10000 nM.
Turning to `Cc1c(O)c(-c2ccc3cc(N4CCC(NCC5CC5)C4)cnc3n2)cc2cn(C)nc12` (stereo in doubt) [Compound 119, 5-{6-[(3R)-3-[(cyclopropylmethyl)amino]pyrrolidin-1-yl]-1,8-naphthyridin-2-yl}-2,7-dimethylindazol-6-ol], the IC50 in the assay with HTT mRNA (setting [1]), in the assay on HTT mRNA (setting [2]) and in the assay with SMN2 mRNA was below 100 nM throughout. The AC50 with HTT mRNA (setting [3]) is 100 to 1000 nM.
With `CNC1CCN(c2cnc3nc(-c4cc5cn(C)nc5c(C)c4O)ncc3c2)C1` (stereo not drawn) [Compound 104, 2,7-dimethyl-5-{6-[3-(methylamino)pyrrolidin-1-yl]pyrido[2,3-d]pyrimidin-2-yl}indazol-6-ol], the IC50 in the assay with HTT mRNA (setting [1]) was 100 to 1000 nM; in the assay with HTT mRNA (setting [2]) it was 100 to 1000 nM; in the assay with SMN2 mRNA, below 100 nM. Moreover, the AC50 in the assay on HTT mRNA (setting [3]) is 100 to 1000 nM.
As to `Cc1c(O)c(-c2ccc3cc(N4CCC(NCC5CC5)C4)cnc3n2)cc2cn(C)nc12` (stereo not drawn) [Compound 105, 5-(6-{3-[(cyclopropylmethyl)amino]pyrrolidin-1-yl}-1,8-naphthyridin-2-yl)-2,7-dimethylindazol-6-ol], the figures for the IC50 with HTT mRNA (setting [1]), in the assay on HTT mRNA (setting [2]) and with SMN2 mRNA were 100 to 1000 nM, 100 to 1000 nM and below 100 nM, respectively. Besides, the AC50 in the assay with HTT mRNA (setting [3]) was in the range of 100 to 1000 nM.
With `CCNC1CCN(c2cnc3nc(-c4cc5cn(C)nc5c(F)c4O)ccc3c2)C1` (stereo not drawn) [Compound 106, 5-{6-[3-(ethylamino)pyrrolidin-1-yl]-1,8-naphthyridin-2-yl}-7-fluoro-2-methylindazol-6-ol], the results for the concentration for half-maximal inhibition (IC50) with HTT mRNA (setting [1]), in the assay on HTT mRNA (setting [2]) and with SMN2 mRNA were 100 to 1000 nM, 100 to 1000 nM and below 100 nM, respectively. The AC50 in the assay on HTT mRNA (setting [3]) lay within 100 to 1000 nM.
As for `CN[C@@H]1CCN(c2cnc3nc(-c4cc5cn(C)nc5c(C)c4O)ncc3c2)C1` [Compound 107, 2,7-dimethyl-5-{6-[(3R)-3-(methylamino)pyrrolidin-1-yl]pyrido[2,3-d]pyrimidin-2-yl}indazol-6-ol hydrochloride], the IC50 with HTT mRNA (setting [1]), with HTT mRNA (setting [2]) and in the assay with SMN2 mRNA was below 100 nM throughout. Further, the AC50 with HTT mRNA (setting [3]) is below 100 nM.
Take `CN[C@@H]1CCN(c2cnc3nc(-c4cc5cn(C)nc5c(C)c4O)ccc3c2)C1` [Compound 112]: the IC50 in the assay on HTT mRNA (setting [1]), in the assay with HTT mRNA (setting [2]) and in the assay on SMN2 mRNA was below 100 nM throughout. For the same compound, the AC50 in the assay with HTT mRNA (setting [3]) is below 100 nM.
Turning to `Cc1cn2nc(-c3cnc4nc(C5CCNCC5)ccc4c3)cc(C)c2n1` [Compound 115, 6-(2,8-dimethylimidazo[1,2-b]pyridazin-6-yl)-2-(piperidin-4-yl)-1,8-naphthyridine], the IC50 lay within 1000 to 10000 nM with HTT mRNA (setting [1]), 1000 to 10000 nM in the assay with HTT mRNA (setting [2]) and 100 to 1000 nM in the assay with SMN2 mRNA. For the same compound, the AC50 with HTT mRNA (setting [3]) is above 10000 nM.
Turning to `CN[C@H]1CCN(c2cnc3nc(-c4cc(C)c5nc(C)cn5n4)ccc3c2)C1` [Compound 116], the half-maximal inhibitory concentration (IC50) in the assay with HTT mRNA (setting [1]), with HTT mRNA (setting [2]) and with SMN2 mRNA was below 100 nM each time. For the same compound, in the assay on HTT mRNA (setting [3]), the half-maximal activity concentration (AC50) was below 100 nM.
Consider `CN[C@@H]1CCN(c2cnc3nc(-c4cc(C)c5nc(C)cn5n4)ccc3c2)C1` [Compound 117], for which the figures for the IC50 in the assay on HTT mRNA (setting [1]), in the assay with HTT mRNA (setting [2]) and in the assay with SMN2 mRNA were 1000 to 10000 nM, 1000 to 10000 nM and below 100 nM, respectively. For the same compound, in the assay with HTT mRNA (setting [3]), the AC50 is 100 to 1000 nM.
In the case of `Cc1c(O)c(-c2ccc3cc(N4CC[C@@H](NCC5CC5)C4)cnc3n2)cc2cn(C)nc12` [Compound 118], the IC50 with HTT mRNA (setting [1]), in the assay on HTT mRNA (setting [2]) and with SMN2 mRNA was below 100 nM each time. In the assay with HTT mRNA (setting [3]), the AC50 is below 100 nM.
Consider `CN[C@H]1CCN(c2cnc3nc(-c4cc5cn(C)nc5c(C)c4O)ncc3c2)C1` [Compound 120], for which the figures for the IC50 in the assay with HTT mRNA (setting [1]), in the assay on HTT mRNA (setting [2]) and in the assay on SMN2 mRNA were 100 to 1000 nM, 100 to 1000 nM and below 100 nM, respectively. Besides, the AC50 with HTT mRNA (setting [3]) was 100 to 1000 nM.
For `CCNC1CCN(c2cnc3nc(-c4cc5cn(C)nc5c(C)c4O)ccc3c2)C1` (stereo not drawn) [Compound 122, 5-{6-[3-(ethylamino)pyrrolidin-1-yl]-1,8-naphthyridin-2-yl}-2,7-dimethylindazol-6-ol], the IC50 in the assay with HTT mRNA (setting [1]), with HTT mRNA (setting [2]) and in the assay with SMN2 mRNA was below 100 nM throughout. For the same compound, the AC50 with HTT mRNA (setting [3]) is below 100 nM.
For the compound `CCN[C@H]1CCN(c2cnc3nc(-c4cc5cn(C)nc5c(C)c4O)ccc3c2)C1` [Compound 123], the results for the 50% inhibitory concentration (IC50) in the assay with HTT mRNA (setting [1]), in the assay on HTT mRNA (setting [2]) and with SMN2 mRNA were 100 to 1000 nM, 100 to 1000 nM and below 100 nM, respectively. In addition, the half-maximal activity concentration (AC50) with HTT mRNA (setting [3]) is 100 to 1000 nM.
For the compound `CCN[C@@H]1CCN(c2cnc3nc(-c4cc5cn(C)nc5c(C)c4O)ccc3c2)C1` [Compound 124], the IC50 with HTT mRNA (setting [1]), with HTT mRNA (setting [2]) and with SMN2 mRNA was below 100 nM each time. The AC50 in the assay on HTT mRNA (setting [3]) was below 100 nM.
As to `CN[C@H]1CN(c2cnc3nc(-c4cc5cn(C)nc5c(C)c4O)ccc3c2)C[C@H]1C` [Compound 125, 2,7-dimethyl-5-{6-[(3R,4R)-3-methyl-4-(methylamino)379pyrrolidine-1-yl]-1,8-naphthyridin-2-yl}indazol-6-ol], the values for the IC50 in the assay on HTT mRNA (setting [1]), in the assay on HTT mRNA (setting [2]) and in the assay on SMN2 mRNA were 100 to 1000 nM, 100 to 1000 nM and below 100 nM, respectively. The AC50 in the assay with HTT mRNA (setting [3]) was in the range of 100 to 1000 nM.
With `CN[C@@H]1CN(c2cnc3nc(-c4cc5cn(C)nc5c(C)c4O)ccc3c2)C[C@H]1C` [Compound 126, 2,7-dimethyl-5-{6-[(3R,4S)-3-methyl-4-(methylamino)382pyrrolidine-1-yl]-1,8-naphthyridin-2-yl}indazol-6-ol], the IC50 is 100 to 1000 nM in the assay with HTT mRNA (setting [1]), 100 to 1000 nM in the assay with HTT mRNA (setting [2]) and below 100 nM in the assay on SMN2 mRNA. In addition, the AC50 in the assay on HTT mRNA (setting [3]) is 1000 to 10000 nM.
With `Cc1cn2cc(-c3cc(Cl)c4cc(N5C[C@H](C)N[C@@H](C)C5)cnc4n3)cc(F)c2n1` [Compound 298], the IC50 in the assay with HTT mRNA (setting [1]) and in the assay on HTT mRNA (setting [2]) was 100 to 1000 nM throughout. Besides, the half-maximal activity concentration (AC50) in the assay on HTT mRNA (setting [3]) is 100 to 1000 nM.
Take `Cc1cn2nc(-c3cc(Cl)c4cc(N5C[C@H](C)N[C@@H](C)C5)cnc4n3)cc(C)c2n1` [Compound 336]: the IC50 in the assay with HTT mRNA (setting [1]) and in the assay on HTT mRNA (setting [2]) was 100 to 1000 nM throughout. Moreover, in the assay with HTT mRNA (setting [3]), the AC50 fell in the range of 100 to 1000 nM.
On to `Cc1c(O)c(-c2cc(Cl)c3cc(N4CCNC5(CC5)C4)cnc3n2)cc2cn(C)nc12` [Compound 381], for which the half-maximal inhibitory concentration (IC50) in the assay on HTT mRNA (setting [1]) and with HTT mRNA (setting [2]) was 100 to 1000 nM throughout. Further, in the assay on HTT mRNA (setting [3]), the AC50 is 100 to 1000 nM.
On to `Cc1cn2nc(-c3ccc4c(Cl)c(N5C[C@H](C)N[C@@H](C)C5)cnc4n3)cc(C)c2n1` [Compound 393, 5-chloro-2-{2,8-dimethylimidazo[1,2-b]pyridazin-6-yl}-6-[(3S,5S)-3,5-dimethylpiperazin-1-yl]-1,8-naphthyridine], for which the half-maximal inhibitory concentration (IC50) in the assay on HTT mRNA (setting [1]) and in the assay on HTT mRNA (setting [2]) was 100 to 1000 nM each time. Besides, the AC50 in the assay on HTT mRNA (setting [3]) was 100 to 1000 nM.
